Laboratory results reported in patent US10787476B2, “Glycoamino acid and use thereof” (AJINOMOTO CO., INC., priority 2013, dated 2020).

What was measured:
[1] = Dissolution rate in stirring water; type: physicochemical; conditions: for dissolution rate: inside temperature 34° C., n=2
Method: Leu and Glc-Leu were each added to stirring water (inside temperature 34° C.) in a hot-water bath at 35° C., and the dissolution rate was measured. The amount of the sample added and the measurement results are as shown below (n=2). As compared to Leu, Glc-Leu was dissolved 46 times faster in equal weight and 17 times faster in equimolar amount.

α/β-glucosidase = assay: Glucosidase treatment, amino acid production amount by HPLC; type: in vitro ADME; conditions: phosphate buffer pH 5.5, 37° C., 30 min later
Method: Glc-Phe, Glc-Leu, Glc-Lys, Glc-Glu and Glc-DOPA were each dissolved in phosphate buffer (pH 5.5) at the ratio shown in Table 2, α/β-glucosidase in the amount shown in Table 2 was added, and the mixture was stirred in a hot-water bath at 37° C. The mixture was diluted 2-fold with 1% aqueous phosphoric acid solution, and analyzed by HPLC. […] As for Glc-Leu, about 80% of leucine was liberated 1 hr later; as for Glc-Lys, about 20% of lysine was liberated 1 hr later; as for Glc-Glu, about 40% of glutamic acid was liberated 1 hr later; and as for Glc-DOPA, about 70% of 3,4-dihydroxyphenylalanine was liberated 1 hr later.

[2] = Heat stability of aqueous Glc-Leu solution (free Leu by HPLC); type: physicochemical; conditions: aqueous solution 100 mg/dl; for Leu liberated: 90° C.
Method: On the other hand, free Leu was not confirmed at 60° C. even after 72 hr, and sufficient heat stability as an amino acid precursor was shown.

[3] = equivalent weight, 300 mg/25 ml water

Row | SMILES | dissolution rate ([1]; equimolar amount to glycoamino acid, 111 mg (0.85 mmol)/25 ml water) | dissolution rate [1, 3] | remaining glycoamino acid (α/β-glucosidase) | free Leu ([2]; 60° C., after 72 hr) | Leu liberated ([2]; 72 hr) | Leu liberated ([2]; about 6 hr) | dissolved faster as compared to Leu ([1]; in equal weight) [times] | dissolved faster as compared to Leu ([1]; in equimolar amount) [times]
1 | CC(C)C[C@H](N)C(=O)O [Leu, L-leucine, reference compound] | (450 sec) | (1203 sec) | – | – | – | – | – | –
2 | O=C(N[C@@H](Cc1ccccc1)C(=O)O)OC1O[C@H](CO)[C@@H](O)[C@H](O)[C@H]1O (stereo partly drawn) [Glc-Phe, N-(α/β-D-glucopyranosyloxycarbonyl)-L-phenylalanine] | – | – | almost disappeared | – | – | – | – | –
3 | CC(C)C[C@H](NC(=O)OC1O[C@H](CO)[C@@H](O)[C@H](O)[C@H]1O)C(=O)O (stereo partly drawn) [Glc-Leu, N-(α/β-D-glucopyranosyloxycarbonyl)-L-leucine] | – | 26 s | – | not confirmed | liberated almost completely | about 50% | 46 | 17
